# According to paper PMC5392334, “Discovery and characterization of a novel irreversible EGFR mutants selective and potent kinase inhibitor CHMFL-EGFR-26 with a distinct binding mode” (Oncotarget, 2017):
# Tests used:
# [1] = target: T1, ABL1(Q252H)-nonphosphorylated (Homo sapiens, UniProt P00519, Q252H); test: KinomeScan; format: binding; details: read-out: % control
# T1 construct: purchased DiscoveRx KINOMEscan
# AKT2 = target: T2, AKT2 (Homo sapiens, UniProt P31751); test: KinomeScan; format: binding; details: read-out: % control
# T2 construct: purchased DiscoveRx KINOMEscan
# ALK = target: T3, ALK (Homo sapiens, UniProt Q9UM73); test: KinomeScan; format: binding; details: read-out: % control
# T3 construct: purchased DiscoveRx KINOMEscan
# AMPK-alpha1 = target: T4, AMPK-alpha1 (Homo sapiens, UniProt Q13131); test: KinomeScan; format: binding; details: read-out: % control
# T4 construct: purchased DiscoveRx KINOMEscan
# BIKE = target: T5, BIKE (Homo sapiens, UniProt Q9NSY1); test: KinomeScan; format: binding; details: read-out: % control
# T5 construct: purchased DiscoveRx KINOMEscan
# T5 sequence (Q9NSY1 whole entry): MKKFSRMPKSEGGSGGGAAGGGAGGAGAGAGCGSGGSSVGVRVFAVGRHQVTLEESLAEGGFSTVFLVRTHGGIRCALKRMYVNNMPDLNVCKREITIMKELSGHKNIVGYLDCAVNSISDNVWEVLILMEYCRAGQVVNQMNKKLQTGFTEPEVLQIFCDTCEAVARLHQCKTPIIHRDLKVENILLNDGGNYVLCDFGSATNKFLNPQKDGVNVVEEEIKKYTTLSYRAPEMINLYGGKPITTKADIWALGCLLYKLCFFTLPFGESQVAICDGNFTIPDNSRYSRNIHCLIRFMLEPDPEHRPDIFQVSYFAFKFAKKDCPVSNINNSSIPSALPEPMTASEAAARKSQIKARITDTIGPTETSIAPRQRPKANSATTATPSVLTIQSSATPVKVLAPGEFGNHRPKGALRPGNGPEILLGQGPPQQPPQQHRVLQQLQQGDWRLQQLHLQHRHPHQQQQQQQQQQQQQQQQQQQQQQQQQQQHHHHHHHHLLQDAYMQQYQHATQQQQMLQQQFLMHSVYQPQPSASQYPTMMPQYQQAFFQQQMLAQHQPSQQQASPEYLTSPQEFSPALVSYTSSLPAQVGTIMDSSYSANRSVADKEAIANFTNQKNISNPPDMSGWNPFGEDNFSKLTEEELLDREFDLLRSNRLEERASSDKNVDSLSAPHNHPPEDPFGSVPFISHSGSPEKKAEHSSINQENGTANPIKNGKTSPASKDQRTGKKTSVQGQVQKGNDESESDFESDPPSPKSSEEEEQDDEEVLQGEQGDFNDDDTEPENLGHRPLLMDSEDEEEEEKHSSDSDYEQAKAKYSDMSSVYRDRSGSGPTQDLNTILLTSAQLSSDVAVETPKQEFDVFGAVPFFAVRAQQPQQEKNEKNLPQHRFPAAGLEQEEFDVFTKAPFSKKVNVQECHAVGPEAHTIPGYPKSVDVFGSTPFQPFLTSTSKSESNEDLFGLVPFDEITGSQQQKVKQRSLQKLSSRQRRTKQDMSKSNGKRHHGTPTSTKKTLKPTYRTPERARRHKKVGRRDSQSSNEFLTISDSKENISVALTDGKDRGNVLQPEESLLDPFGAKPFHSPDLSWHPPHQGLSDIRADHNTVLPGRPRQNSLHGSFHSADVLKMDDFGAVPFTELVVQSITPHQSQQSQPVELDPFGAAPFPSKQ
# BRSK2 = target: T6, BRSK2 (Homo sapiens, UniProt Q8IWQ3); test: KinomeScan; format: binding; details: read-out: % control
# T6 construct: purchased DiscoveRx KINOMEscan
# CAMK2G = target: T7, CAMK2G (Homo sapiens, UniProt Q13555); test: KinomeScan; format: binding; details: read-out: % control
# T7 construct: purchased DiscoveRx KINOMEscan
# CDC2L2 = target: T8, CDC2L2 (Homo sapiens, UniProt Q9UQ88); test: KinomeScan; format: binding; details: read-out: % control
# T8 construct: purchased DiscoveRx KINOMEscan
# CDK4 = target: T9, CDK4 (Homo sapiens, UniProt P11802); test: KinomeScan; format: binding; details: read-out: % control
# T9 construct: purchased DiscoveRx KINOMEscan
# CDK4-cyclinD1 = target: T10, CDK4-cyclinD1 (Homo sapiens, UniProt P11802); test: KinomeScan; format: binding; details: read-out: % control
# T10 construct: purchased DiscoveRx KINOMEscan
# CDKL2 = target: T11, CDKL2 (Homo sapiens, UniProt Q92772); test: KinomeScan; format: binding; details: read-out: % control
# T11 construct: purchased DiscoveRx KINOMEscan
# DYRK1B = target: T12, DYRK1B (Homo sapiens, UniProt Q9Y463); test: KinomeScan; format: binding; details: read-out: % control
# T12 construct: purchased DiscoveRx KINOMEscan
# EGFR(L861Q) = target: T13, EGFR(L861Q) (Homo sapiens, UniProt P00533, L861Q); test: KinomeScan; format: binding; details: read-out: % control
# T13 construct: purchased DiscoveRx KINOMEscan
# T13 sequence (P00533 25-1210 L861Q): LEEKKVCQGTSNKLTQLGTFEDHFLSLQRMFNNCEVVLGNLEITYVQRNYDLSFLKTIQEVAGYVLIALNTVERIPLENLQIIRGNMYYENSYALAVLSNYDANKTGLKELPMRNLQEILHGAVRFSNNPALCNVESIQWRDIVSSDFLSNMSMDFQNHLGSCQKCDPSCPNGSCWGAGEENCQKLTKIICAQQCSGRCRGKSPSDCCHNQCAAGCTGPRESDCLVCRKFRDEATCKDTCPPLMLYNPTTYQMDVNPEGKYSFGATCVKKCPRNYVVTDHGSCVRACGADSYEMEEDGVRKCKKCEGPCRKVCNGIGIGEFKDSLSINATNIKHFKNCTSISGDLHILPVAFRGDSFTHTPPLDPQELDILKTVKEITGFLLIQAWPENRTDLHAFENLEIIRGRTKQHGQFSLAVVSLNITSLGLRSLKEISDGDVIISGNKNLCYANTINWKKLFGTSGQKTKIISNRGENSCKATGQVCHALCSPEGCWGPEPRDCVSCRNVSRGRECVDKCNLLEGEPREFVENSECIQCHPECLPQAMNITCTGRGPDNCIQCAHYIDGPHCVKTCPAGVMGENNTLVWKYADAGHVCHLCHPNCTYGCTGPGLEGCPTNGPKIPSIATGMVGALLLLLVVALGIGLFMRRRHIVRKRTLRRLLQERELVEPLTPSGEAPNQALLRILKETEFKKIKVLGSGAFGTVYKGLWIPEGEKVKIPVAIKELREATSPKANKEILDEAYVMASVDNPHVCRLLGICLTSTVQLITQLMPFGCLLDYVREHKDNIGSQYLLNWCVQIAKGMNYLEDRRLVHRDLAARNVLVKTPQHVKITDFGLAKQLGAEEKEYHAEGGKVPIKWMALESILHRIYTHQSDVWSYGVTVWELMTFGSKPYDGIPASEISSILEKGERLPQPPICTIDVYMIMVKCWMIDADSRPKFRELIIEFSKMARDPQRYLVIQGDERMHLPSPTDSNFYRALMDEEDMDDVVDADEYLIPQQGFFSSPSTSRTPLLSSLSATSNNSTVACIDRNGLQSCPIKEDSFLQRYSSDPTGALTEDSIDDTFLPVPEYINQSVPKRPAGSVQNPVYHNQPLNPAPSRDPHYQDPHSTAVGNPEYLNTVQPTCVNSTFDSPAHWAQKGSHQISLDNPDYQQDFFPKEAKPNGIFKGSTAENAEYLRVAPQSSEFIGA
# EGFR(S752-I759del) = target: T14, EGFR(S752-I759del) (Homo sapiens, UniProt P00533, DEL752-759); test: KinomeScan; format: binding; details: read-out: % control
# T14 construct: purchased DiscoveRx KINOMEscan
# EPHA1 = target: T15, EPHA1 (Homo sapiens, UniProt P21709); test: KinomeScan; format: binding; details: read-out: % control
# T15 construct: purchased DiscoveRx KINOMEscan
# EPHB2 = target: T16, EPHB2 (Homo sapiens, UniProt P29323); test: KinomeScan; format: binding; details: read-out: % control
# T16 construct: purchased DiscoveRx KINOMEscan
# FGFR4 = target: T17, FGFR4 (Homo sapiens, UniProt P22455); test: KinomeScan; format: binding; details: read-out: % control
# T17 construct: purchased DiscoveRx KINOMEscan
# FRK = target: T18, FRK (Homo sapiens, UniProt P42685); test: KinomeScan; format: binding; details: read-out: % control
# T18 construct: purchased DiscoveRx KINOMEscan
# T18 sequence (P42685 whole entry): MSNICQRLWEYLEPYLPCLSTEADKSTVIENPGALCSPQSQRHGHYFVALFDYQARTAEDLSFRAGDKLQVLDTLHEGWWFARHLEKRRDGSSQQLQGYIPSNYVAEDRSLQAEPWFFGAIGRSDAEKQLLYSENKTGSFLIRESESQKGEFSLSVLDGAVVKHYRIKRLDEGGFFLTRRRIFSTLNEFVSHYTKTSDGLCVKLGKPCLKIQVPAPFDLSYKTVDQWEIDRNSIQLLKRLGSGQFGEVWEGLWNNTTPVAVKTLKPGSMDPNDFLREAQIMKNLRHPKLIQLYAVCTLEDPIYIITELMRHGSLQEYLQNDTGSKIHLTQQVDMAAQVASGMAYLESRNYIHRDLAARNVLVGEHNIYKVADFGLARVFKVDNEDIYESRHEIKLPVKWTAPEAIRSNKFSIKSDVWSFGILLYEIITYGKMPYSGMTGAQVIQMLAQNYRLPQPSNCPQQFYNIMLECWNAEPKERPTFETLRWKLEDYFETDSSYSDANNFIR
# HIPK4 = target: T19, HIPK4 (Homo sapiens, UniProt Q8NE63); test: KinomeScan; format: binding; details: read-out: % control
# T19 construct: purchased DiscoveRx KINOMEscan
# IRAK4 = target: T20, IRAK4 (Homo sapiens, UniProt Q9NWZ3); test: KinomeScan; format: binding; details: read-out: % control
# T20 construct: purchased DiscoveRx KINOMEscan
# MEK5 = target: T21, MEK5 (Homo sapiens, UniProt Q13163); test: KinomeScan; format: binding; details: read-out: % control
# T21 construct: purchased DiscoveRx KINOMEscan
# MLK1 = target: T22, MLK1 (Homo sapiens, UniProt P80192); test: KinomeScan; format: binding; details: read-out: % control
# T22 construct: purchased DiscoveRx KINOMEscan
# MST4 = target: T23, MST4 (Homo sapiens, UniProt Q9P289); test: KinomeScan; format: binding; details: read-out: % control
# T23 construct: purchased DiscoveRx KINOMEscan
# NIK = target: T24, NIK (Homo sapiens, UniProt Q99558); test: KinomeScan; format: binding; details: read-out: % control
# T24 construct: purchased DiscoveRx KINOMEscan
# PFCDPK1(P.falciparum) = target: T25, PFCDPK1(P.falciparum) (Plasmodium falciparum, UniProt P62344); test: KinomeScan; format: binding; details: read-out: % control
# T25 construct: purchased DiscoveRx KINOMEscan
# PFPK5(P.falciparum) = target: T26, PFPK5(P.falciparum) (Plasmodium falciparum, UniProt P61075); test: KinomeScan; format: binding; details: read-out: % control
# T26 construct: purchased DiscoveRx KINOMEscan
# T26 sequence (P61075 whole entry): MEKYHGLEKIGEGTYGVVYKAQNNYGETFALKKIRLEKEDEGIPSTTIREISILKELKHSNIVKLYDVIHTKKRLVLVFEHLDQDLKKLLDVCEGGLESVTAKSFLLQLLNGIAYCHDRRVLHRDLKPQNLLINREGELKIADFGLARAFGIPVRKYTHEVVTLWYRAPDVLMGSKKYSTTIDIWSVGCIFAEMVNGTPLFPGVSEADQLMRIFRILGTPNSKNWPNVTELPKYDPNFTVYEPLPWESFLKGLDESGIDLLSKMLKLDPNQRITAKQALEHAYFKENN
# PIK3CA = target: T27, PIK3CA (Homo sapiens, UniProt P42336); test: KinomeScan; format: binding; details: read-out: % control
# T27 construct: purchased DiscoveRx KINOMEscan
# PIM2 = target: T28, PIM2 (Homo sapiens, UniProt Q9P1W9); test: KinomeScan; format: binding; details: read-out: % control
# T28 construct: purchased DiscoveRx KINOMEscan
# T28 sequence (Q9P1W9 whole entry): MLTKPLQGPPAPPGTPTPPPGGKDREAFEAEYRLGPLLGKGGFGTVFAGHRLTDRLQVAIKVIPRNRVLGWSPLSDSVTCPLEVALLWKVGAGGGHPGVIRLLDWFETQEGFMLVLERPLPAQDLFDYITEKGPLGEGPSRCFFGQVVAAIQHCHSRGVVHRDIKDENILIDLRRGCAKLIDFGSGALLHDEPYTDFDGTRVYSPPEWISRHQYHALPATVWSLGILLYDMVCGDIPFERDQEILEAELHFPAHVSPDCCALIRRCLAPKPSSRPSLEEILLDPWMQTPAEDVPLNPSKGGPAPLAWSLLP
# PLK2 = target: T29, PLK2 (Homo sapiens, UniProt Q9NYY3); test: KinomeScan; format: binding; details: read-out: % control
# T29 construct: purchased DiscoveRx KINOMEscan
# PRKCD = target: T30, PRKCD (Homo sapiens, UniProt Q05655); test: KinomeScan; format: binding; details: read-out: % control
# T30 construct: purchased DiscoveRx KINOMEscan
# PRKX = target: T31, PRKX (Homo sapiens, UniProt P51817); test: KinomeScan; format: binding; details: read-out: % control
# T31 construct: purchased DiscoveRx KINOMEscan
# PRP4 = target: T32, PRP4 (Homo sapiens, UniProt Q13523); test: KinomeScan; format: binding; details: read-out: % control
# T32 construct: purchased DiscoveRx KINOMEscan
# PYK2 = target: T33, PYK2 (Homo sapiens, UniProt Q14289); test: KinomeScan; format: binding; details: read-out: % control
# T33 construct: purchased DiscoveRx KINOMEscan
# RIOK3 = target: T34, RIOK3 (Homo sapiens, UniProt O14730); test: KinomeScan; format: binding; details: read-out: % control
# T34 construct: purchased DiscoveRx KINOMEscan
# RIPK2 = target: T35, RIPK2 (Homo sapiens, UniProt O43353); test: KinomeScan; format: binding; details: read-out: % control
# T35 construct: purchased DiscoveRx KINOMEscan
# [2] = target: RPS6KA5(Kin.Dom.2-C-terminal) (Homo sapiens, UniProt O75582); test: KinomeScan; format: binding; details: read-out: % control
# Sequence of RPS6KA5(Kin.Dom.2-C-terminal) (O75582 388-802 limits assumed): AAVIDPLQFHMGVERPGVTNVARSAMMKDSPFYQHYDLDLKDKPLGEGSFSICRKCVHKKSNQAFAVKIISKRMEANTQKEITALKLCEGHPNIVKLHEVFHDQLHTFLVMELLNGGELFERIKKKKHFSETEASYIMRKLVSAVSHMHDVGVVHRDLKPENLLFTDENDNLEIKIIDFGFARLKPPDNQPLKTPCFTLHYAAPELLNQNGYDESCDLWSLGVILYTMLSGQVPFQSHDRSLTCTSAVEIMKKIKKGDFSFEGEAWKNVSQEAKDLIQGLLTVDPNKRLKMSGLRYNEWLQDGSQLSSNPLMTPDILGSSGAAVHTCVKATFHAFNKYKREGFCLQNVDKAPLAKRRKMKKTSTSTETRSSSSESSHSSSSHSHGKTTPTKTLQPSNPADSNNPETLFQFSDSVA
# SgK110 = target: T36, SgK110 (Homo sapiens, UniProt P0C264); test: KinomeScan; format: binding; details: read-out: % control
# T36 construct: purchased DiscoveRx KINOMEscan
# T36 sequence (P0C264 whole entry): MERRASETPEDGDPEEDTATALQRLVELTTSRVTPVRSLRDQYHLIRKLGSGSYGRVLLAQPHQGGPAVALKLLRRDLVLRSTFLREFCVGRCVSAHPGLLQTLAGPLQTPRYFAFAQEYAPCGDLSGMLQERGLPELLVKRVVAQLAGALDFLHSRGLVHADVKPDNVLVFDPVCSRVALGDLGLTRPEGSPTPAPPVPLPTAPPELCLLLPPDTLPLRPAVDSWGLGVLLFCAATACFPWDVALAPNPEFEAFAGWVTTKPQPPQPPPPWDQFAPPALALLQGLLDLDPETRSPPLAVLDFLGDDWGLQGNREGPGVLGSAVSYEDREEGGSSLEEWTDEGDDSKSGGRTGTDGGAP
# TLK1 = target: T37, TLK1 (Homo sapiens, UniProt Q9UKI8); test: KinomeScan; format: binding; details: read-out: % control
# T37 construct: purchased DiscoveRx KINOMEscan
# TSSK3 = target: T38, TSSK3 (Homo sapiens, UniProt Q96PN8); test: KinomeScan; format: binding; details: read-out: % control
# T38 construct: purchased DiscoveRx KINOMEscan
# ULK3 = target: T39, ULK3 (Homo sapiens, UniProt Q6PHR2); test: KinomeScan; format: binding; details: read-out: % control
# T39 construct: purchased DiscoveRx KINOMEscan
# ZAK = target: T40, ZAK (Homo sapiens, UniProt Q9NYL2); test: KinomeScan; format: binding; details: read-out: % control
# T40 construct: purchased DiscoveRx KINOMEscan
# T40 sequence (Q9NYL2 whole entry): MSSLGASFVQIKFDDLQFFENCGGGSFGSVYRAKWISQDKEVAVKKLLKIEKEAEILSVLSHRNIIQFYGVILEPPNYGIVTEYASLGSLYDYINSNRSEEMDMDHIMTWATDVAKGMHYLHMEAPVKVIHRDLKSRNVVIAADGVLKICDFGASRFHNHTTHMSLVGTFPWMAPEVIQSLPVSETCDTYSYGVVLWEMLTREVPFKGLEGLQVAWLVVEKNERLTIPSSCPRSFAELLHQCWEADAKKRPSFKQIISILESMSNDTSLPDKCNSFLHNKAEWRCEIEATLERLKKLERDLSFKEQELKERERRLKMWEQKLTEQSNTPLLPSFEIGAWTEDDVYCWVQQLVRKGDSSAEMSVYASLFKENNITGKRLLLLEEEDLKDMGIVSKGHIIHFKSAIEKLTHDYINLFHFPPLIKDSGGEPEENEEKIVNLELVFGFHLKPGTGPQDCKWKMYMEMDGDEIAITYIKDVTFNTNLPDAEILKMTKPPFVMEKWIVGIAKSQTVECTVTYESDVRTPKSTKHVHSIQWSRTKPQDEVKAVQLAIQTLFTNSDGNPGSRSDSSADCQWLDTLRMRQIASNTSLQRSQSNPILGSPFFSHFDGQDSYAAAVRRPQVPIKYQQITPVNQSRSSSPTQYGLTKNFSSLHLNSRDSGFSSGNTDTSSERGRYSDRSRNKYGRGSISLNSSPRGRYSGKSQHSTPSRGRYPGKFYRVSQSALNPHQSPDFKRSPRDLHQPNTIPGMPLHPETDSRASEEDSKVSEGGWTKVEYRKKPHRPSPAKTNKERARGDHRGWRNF
# BaF3-TEL-EGFR-T790M = test: Anti-proliferation, BaF3 isogenic cell lines (CellTiter-Glo); format: cell-based; details: Mus musculus, 72 hours, triplet testing
# [3] = tested on: BaF3-TEL-EGFR-T790M-C797S; test: as above; format: cell-based; details: Mus musculus, 72 hours, triplet testing
# [4] = tested on: BaF3-FL-EGFR-del19-T790M-C797S; test: as above; format: cell-based; details: Mus musculus, 72 hours, triplet testing
smiles,measurement,setting,value
C=CC(=O)N1CCC[C@@H](n2nc(-c3ccc(OCc4cccc(C)n4)c(Cl)c3)c3c(N)ncnc32)C1 [CHMFL-EGFR-26],remaining binding at 1 µM,[1],100%
same,remaining binding at 1 µM,AKT2,86%
same,remaining binding at 1 µM,ALK,100%
same,remaining binding at 1 µM,AMPK-alpha1,79%
same,remaining binding at 1 µM,BIKE,96%
same,remaining binding at 1 µM,BRSK2,97%
same,remaining binding at 1 µM,CAMK2G,95%
same,remaining binding at 1 µM,CDC2L2,97%
same,remaining binding at 1 µM,CDK4,100%
same,remaining binding at 1 µM,CDK4-cyclinD1,100%
same,remaining binding at 1 µM,CDKL2,100%
same,remaining binding at 1 µM,DYRK1B,85%
same,remaining binding at 1 µM,EGFR(L861Q),0.9%
same,remaining binding at 1 µM,EGFR(S752-I759del),12%
same,remaining binding at 1 µM,EPHA1,42%
same,remaining binding at 1 µM,EPHB2,100%
same,remaining binding at 1 µM,FGFR4,100%
same,remaining binding at 1 µM,FRK,96%
same,remaining binding at 1 µM,HIPK4,100%
same,remaining binding at 1 µM,IRAK4,100%
same,remaining binding at 1 µM,MEK5,0.1%
same,remaining binding at 1 µM,MLK1,99%
same,remaining binding at 1 µM,MST4,99%
same,remaining binding at 1 µM,NIK,100%
same,remaining binding at 1 µM,PFCDPK1(P.falciparum),54%
same,remaining binding at 1 µM,PFPK5(P.falciparum),100%
same,remaining binding at 1 µM,PIK3CA,100%
same,remaining binding at 1 µM,PIM2,100%
same,remaining binding at 1 µM,PLK2,89%
same,remaining binding at 1 µM,PRKCD,100%
same,remaining binding at 1 µM,PRKX,81%
same,remaining binding at 1 µM,PRP4,78%
same,remaining binding at 1 µM,PYK2,55%
same,remaining binding at 1 µM,RIOK3,82%
same,remaining binding at 1 µM,RIPK2,13%
same,remaining binding at 1 µM,[2],100%
same,remaining binding at 1 µM,SgK110,100%
same,remaining binding at 1 µM,TLK1,84%
same,remaining binding at 1 µM,TSSK3,100%
same,remaining binding at 1 µM,ULK3,92%
same,remaining binding at 1 µM,ZAK,100%
same,GI50,BaF3-TEL-EGFR-T790M,< 0.3 nM
same,GI50,[3],3700 nM
same,GI50,[4],2100 nM
